According to paper PMC9071099, “Towards an advanced testing strategy for genotoxicity using image-based 2D and 3D HepG2 DNA damage response fluorescent protein reporters” (Mutagenesis, 2021):
Where two headings read alike, the source gives them in different places.

How the values were obtained:
BTG2-GFP HepG2 reporter = type: cell-based
Description: (§1) The HepG2 BAC-GFP reporters for human BTG2, p21 and p53 were generated previously and used to monitor the DDR ([14],[18]). Cells were maintained in DMEM high glucose (Gibco) supplemented with 10% (v/v) fetal bovine serum (FBS), 25 U/ml penicillin and 25 µg/ml streptomycin (referred to as normal DMEM medium) at 37°C and 5% CO2. The reporter cells were tested between passages 19–21 throughout the data presented (Supplementary Figure 1, available at Mutagenesis Online).
(§2) Two different compound exposure scenarios were performed: a single exposure in 2D and a 4-day repeated exposure in 3D. A schematic overview of the tested exposure scenarios for each HepG2 model has been depicted in Figure 1. For the single exposure scenario in 2D, medium was replaced by freshly diluted compound in medium 24 h post seeding. DDRs were monitored after 24, 48 and 72 h by live cell confocal imaging (Figure 1A and B). For the 4-day repeated exposure scenario in 3D, each day medium was replaced by freshly diluted compound in medium for four consecutive days (Figure 1C and D). The imaging was started 24 h after the last exposure. For both scenarios, five compounds in eight concentrations were tested. DMSO, PBS or ultrapure H2O were used as solvent controls. The ATP-lite luminescence kit (Perkin Elmer) was used according to supplier’s protocol to measure cell viability. Measurements were performed 72 h or 24 h post single or repeated exposure, respectively. Absolute IC50 values have been calculated over the ATP-lite data by determining the intersect of the fitted concentration–response curve with the 50% viability baseline via GraphPad prism 8.1.1.
(§3) Prior to imaging, cells were stained with Hoechst 33342 at a concentration of 0.1 µg/ml to visualise the nuclei. To examine compound-induced cell death using confocal microscopy, propidium iodide (PI) was added during all compound exposures at a concentration of 100 µM to stain for necrotic or late apoptotic cells. The induction of GFP intensities and PI were monitored with a Nikon Eclipse Ti confocal laser microscope (Nikon, Amsterdam, The Netherlands), equipped with lasers at wavelengths 408, 488 and 561, an automated stage and perfect focus system at 37°C and 5% CO2. Images for 2D cultures were acquired with a Nikon 20x Dry Plan Apo VC NA 0.75 objective. Images for 3D cultures were acquired with a Nikon 10x Dry Plan Fluor NA 0.3 objective. For each condition, a z-stack of 9–11 images was generated with a step size of 30 µm.
(§4) For 2D cultures, image quantification was performed with Cell Profiler version 2.2.0 (Broad Institute, Cambridge, USA) using modules described previously ([14]). Nuclei segmentation based on Hoechst was done in ImageJ using an in-house developed macro based on the watershed masked clustering algorithm ([27]). Segmentation of the cytoplasmic area was done using the Distance N method expanding the edges of nuclear objects with six pixels followed by subtraction of the nuclear area. p21 and p53-GFP intensities were measured in the nuclei and BTG2-GFP in the cytoplasm. The PI-positive cells were identified by an overlay of the PI signal and the segmented nuclei. A cell was considered positive when there was at least 10% overlap. Results were stored in HDF5 format ([28]). To extract summarised data for further analysis and visualisation, in-house developed R-scripts were used in RStudio (version 1.0.153) (Boston, MA, USA) ([29–31]). The mean nuclear and cytoplasmic intensities of all measured single cells and the fraction of PI-positive cells for each image were extracted as output from the HDF5 files.
(§5) For 3D cultures, the NIS Elements analysis software (Nikon, Amsterdam, The Netherlands) was used to quantify the GFP intensity and PI-positive area within spheroids.

[1] = system: p53 pathway activation (p53-GFP, p21-GFP, BTG2-GFP HepG2 reporters); type: cell-based; settings: for DDR (p21 and p53 activation): 3D, 4-day repeated dosing
Description: as §1, §2, §3, §4, §5

p53-GFP HepG2 reporter = assay: p53-GFP reporter activation, live cell confocal imaging; type: cell-based, human; settings: 2D, normal DMEM medium
Description: as §1
Two different compound exposure scenarios were performed: a single exposure in 2D and a 4-day repeated exposure in 3D. A schematic overview of the tested exposure scenarios for each HepG2 model has been depicted in Figure 1. For the single exposure scenario in 2D, medium was replaced by freshly diluted compound in medium 24 h post seeding. DDRs were monitored after 24, 48 and 72 h by live cell confocal imaging (Figure 1A and B). […] The ATP-lite luminescence kit (Perkin Elmer) was used according to supplier’s protocol to measure cell viability. […]
Prior to imaging, cells were stained with Hoechst 33342 at a concentration of 0.1 µg/ml to visualise the nuclei. […] The induction of GFP intensities and PI were monitored with a Nikon Eclipse Ti confocal laser microscope (Nikon, Amsterdam, The Netherlands), equipped with lasers at wavelengths 408, 488 and 561, an automated stage and perfect focus system at 37°C and 5% CO2. […]

PHH = system: PHH; parameters: method as in PMID 32318794; settings: cited from earlier work

Compound: Cc1c(-c2ccc(-c3ccccc3F)cc2)nc2ccc(F)cc2c1C(=O)O [Brequinar]
- BTG2-GFP response across culture conditions (BTG2-GFP HepG2 reporter; four culture conditions): only induced BTG2-GFP responses in the proliferating HepG2 cultured in 2D in normal DMEM medium
- DDR (p21 and p53 activation) ([1]; AAGLY medium): induced a DDR (p21 and p53 activation) at the highest concentration
- DDR (p21 and p53 activation) ([1]; normal DMEM medium): not seen
- DDR ([1]; 24 h after exposure): no DDR was observed
- maximal p53 induction compared to other reporters (p53-GFP HepG2 reporter): ~ 3 fold

Compound: N.N.[Cl][Pt][Cl] [Cisplatin]
- DDR detection (PoD) ([1]; 2D culturing, AAGLY medium): could not be detected
- concentration giving clear reporter activation ([1]; AAGLY medium or 3D culture): ≥ 10 µM
- PoD of reporter activation ([1]; HepG2 2D, normal DMEM medium): 0.32 to 1.83 µM
- concentration giving clear concentration-dependent reporter activation ([1]; all DNA damage reporters, 2D, normal DMEM medium): ≥ 0.46 µM
- PoD (CometChip) (PHH): 6.3 µM

Compound: Nc1ccn([C@@H]2O[C@H](CO)[C@@H](O)C2(F)F)c(=O)n1 [Gemcitabine]
- BTG2-GFP response across culture conditions (BTG2-GFP HepG2 reporter; human): only induced BTG2-GFP responses in the proliferating HepG2 cultured in 2D in normal DMEM medium
- PoD of reporter activation [1]: did not induce a quantifiable genotoxic effect
- genotoxic effects (reporter activation) [1]: almost absent
- PoD of reporter activation ([1]; human): ≤ 0.028 µM

Compound: Aflatoxin B1
- concentration of peak BTG2-GFP induction (BTG2-GFP HepG2 reporter): 10 µM
- concentration at which reporter induction was already observed [1]: 0.1 µM
- induction of DNA damage reporters [1]: induced DNA damage reporters (BTG2, p21 and p53) in all culture conditions
- reporter induction [1]: ≤ 4.5 fold
